The test concerns BT-474 breast cancer xenograft. Kind of test: Antitumor effect in BT-474 human breast carcinoma xenograft model in nude mice. It is filed as in vivo. The conditions noted are these: BT-474 xenograft, 21 days treatment, i.v. On the procedure:
The estrogen receptor positive cell line BT-474 (ATCC, number HTB-20) which is a human breast carcinoma cell line is used. The cells are grown in DMEM high glucose (4.5 g/l) supplemented with 10% FCS, […] L-glutamine and 1% sodium pyruvate.
In preparation for cell inoculation, each mouse is subcutaneously implanted on the upper dorsal side with a 17β-Estradiol pellet (25 microgram/day; 90 day release) using a trocar needle. BT-474 cells (5×10̂6) are injected in 200 microliter Matrigel:HBSS (1:1 vol) (BD Matrigel™ Basement Membrane Matrix). The injection site is subcutaneously in the right flank. Treatment with compound I is initiated when the average tumor volume reached approximately 100 mm^3 Tumor growth is monitored at regular intervals. The xenograft tumor sizes is measured manually with calipers and the tumor volume is estimated using the formula: […], where width (W) and length (L) are the two largest diameters. Results are presented as mean±SEM. Tumor data are analyzed by ANOVA with post hoc Dunnet's test for comparison of treatment versus control group.
As a measure of efficacy the % T/C value is calculated at the end of the experiment according to:
(Δtumor volumetreated/Δtumor volumecontrol)*100
Where Δtumor volumes represent the mean tumor volume on the evaluation day minus the mean tumor volume at the start of the experiment.
Tumor regression is presented as the relative absolute change in tumor volume from the start to the end of the experiment (−(Tumor volumeevaluation day−Tumor volumestart day)/Tumor volumestart day*100).
The antitumor effect of compound I and trastazumab is evaluated in the BT-474 xenograft model (FIG. 1). The treatment period is 21 days and each treatment group consists of 8 tumor bearing animals. The tumor sizes in the treatment groups are compared to those of the vehicle treated groups and the effect is expressed as % T/C or regression when applicable. […] Compound I is administered i.v. once per week at a dose of 15 mg/kg.
(Xenograft models place foreign cells or tissue in a host animal.)

The values below come from US20120219550A1, “PHARMACEUTICAL COMBINATIONS COMPRISING A PYRIDO [4,3-D] PYRIMIDINE DERIVED HSP90-INHIBITOR AND A HER2 INHIBITOR” (NOVARTIS AG, priority 2008, published 2012).

Each structure is given as a SMILES string.

Take `CCNC(=O)c1noc(-c2cc(C(C)C)c(O)cc2O)c1-c1ccc(CN2CCOCC2)cc1` [Compound I, 5-(2,4-Dihydroxy-5-isopropyl-phenyl)-4-(4-morpholin-4-ylmethyl-phenyl)-isoxazole-3-carboxylic acid ethylamide]: the “antitumor effect in words (comparison with vehicle or single agents)” value is reported as “no statistically significant difference from vehicle treated animals”. In addition, the “T/C (%)” value (Trastuzumab 5 mg/kg 2 qw, Compound I 15 mg/kg qw, end of experiment) came to 96%. In addition, the “reduction of tumor burden” value (Trastuzumab 5 mg/kg twice per week, Compound I 15 mg/kg qw) was 4%. For the setting “mean ± SEM, Trastuzumab 5 mg/kg 2 qw, Compound I 15 mg/kg qw”, the “ΔTumor volume (mm^3)” value stood at 929 ± 152 mm^3.
